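Protocol summary: plate cells (96-well), add compound at 5 concentrations, incubate 48 h, interpolate endpoints linearly. Definition used: TGI = concentration required for complete inhibition of growth.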
Key:
Test in all cases: NCI-60 cell line screen, 48 h
DMS 114 small cell lung = test system: DMS 114 small cell lung
SNB-78 CNS = test system: SNB-78 CNS
KM20L2 colon = test system: KM20L2 colon
DLD-1 colon = test system: DLD-1 colon
DMS 273 small cell lung = test system: DMS 273 small cell lung
LXFL 529 NSCLC = test system: LXFL 529 NSCLC
XF 498 CNS = test system: XF 498 CNS
DU-145 prostate = test system: DU-145 prostate
MCF7 breast = test system: MCF7 breast
NCI/ADR-RES ovarian = test system: NCI/ADR-RES ovarian
HS 578T breast = test system: HS 578T breast

Question: For `Cc1ccc(S(=O)(=O)N/N=C(\c2nc3ccc([N+](=O)[O-])cc3[nH]c2=O)C(O)c2ccc([N+](=O)[O-])cc2)cc1` (stereo not given), which TGI (DMS 114 small cell lung) is on record?
Answer: The TGI was > 100 µM.

Question: What about the TGI (SNB-78 CNS) of the same molecule?
Answer: The TGI was > 100 µM.

Question: What about the TGI (KM20L2 colon) of the same molecule?
Answer: Its TGI is > 100 µM.

Question: What about the TGI (DLD-1 colon) of the same molecule?
Answer: Its TGI is > 100 µM.

Question: And the TGI (DMS 273 small cell lung)?
Answer: The TGI was > 100 µM.

Question: And the TGI (LXFL 529 NSCLC)?
Answer: Its TGI is > 100 µM.

Question: What about the TGI (XF 498 CNS) of the same molecule?
Answer: Its TGI is > 100 µM.

Question: For `N#COc1ccc(Oc2ccccc2)cc1`, which TGI (DMS 114 small cell lung) is on record?
Answer: Its TGI is 89.6 µM.

Question: And the TGI (SNB-78 CNS)?
Answer: Its TGI is > 100 µM.

Question: What about the TGI (KM20L2 colon) of the same molecule?
Answer: Its TGI is > 100 µM.

Question: What about the TGI (DLD-1 colon) of the same molecule?
Answer: Its TGI is > 100 µM.

Question: And the TGI (DMS 273 small cell lung)?
Answer: The TGI was 50.4 µM.

Question: What about the TGI (LXFL 529 NSCLC) of the same molecule?
Answer: Its TGI is > 100 µM.

Question: What about the TGI (XF 498 CNS) of the same molecule?
Answer: The TGI was > 100 µM.

Question: For `CC(C)(C)OP(=O)(OC(C)(C)C)C(O)c1ccc(/C=C(\C#N)C(N)=O)cc1` (stereo not given), which TGI (DMS 114 small cell lung) is on record?
Answer: Its TGI is > 100 µM.

Question: What about the TGI (SNB-78 CNS) of the same molecule?
Answer: Its TGI is > 100 µM.

Question: What about the TGI (KM20L2 colon) of the same molecule?
Answer: The TGI was > 100 µM.

Question: What about the TGI (DLD-1 colon) of the same molecule?
Answer: The TGI was > 100 µM.

Question: And the TGI (DMS 273 small cell lung)?
Answer: The TGI was > 100 µM.

Question: What about the TGI (LXFL 529 NSCLC) of the same molecule?
Answer: Its TGI is > 100 µM.

Question: And the TGI (XF 498 CNS)?
Answer: Its TGI is > 100 µM.

Question: With `Cn1c(=O)nc2n(-c3ccc(Cl)cc3)c(-c3ccccc3)c(-c3ccccc3)nc-2c1=O` as the molecule, how does the TGI (DMS 114 small cell lung) read?
Answer: The TGI was > 100 µM.

Question: And the TGI (SNB-78 CNS)?
Answer: The TGI was > 100 µM.

Question: And the TGI (KM20L2 colon)?
Answer: Its TGI is > 100 µM.

Question: And the TGI (DLD-1 colon)?
Answer: Its TGI is > 100 µM.

Question: And the TGI (DMS 273 small cell lung)?
Answer: The TGI was 59.3 µM.

Question: What about the TGI (LXFL 529 NSCLC) of the same molecule?
Answer: Its TGI is > 100 µM.

Question: What about the TGI (XF 498 CNS) of the same molecule?
Answer: Its TGI is 42.2 µM.

Question: With `Nc1ccc(-c2cc(C(=O)Nc3nccs3)[nH]c(=S)n2)cc1` as the molecule, how does the TGI (DMS 114 small cell lung) read?
Answer: Its TGI is > 100 µM.

Question: What about the TGI (SNB-78 CNS) of the same molecule?
Answer: Its TGI is > 100 µM.

Question: What about the TGI (KM20L2 colon) of the same molecule?
Answer: The TGI was > 100 µM.

Question: What about the TGI (DLD-1 colon) of the same molecule?
Answer: The TGI was > 100 µM.

Question: And the TGI (LXFL 529 NSCLC)?
Answer: Its TGI is > 100 µM.

Question: What about the TGI (XF 498 CNS) of the same molecule?
Answer: Its TGI is > 100 µM.

Question: What does the source list for `c1ccc(CN2CCc3[nH]c4ccccc4c3C2)cc1`?
Answer: TGI (DMS 114 small cell lung): 47.3 µM; TGI (SNB-78 CNS): > 100 µM; TGI (KM20L2 colon): 26.3 µM; TGI (DU-145 prostate): 78.3 µM; TGI (DLD-1 colon): > 100 µM; TGI (MCF7 breast): 31.9 µM; TGI (DMS 273 small cell lung): > 100 µM; TGI (NCI/ADR-RES ovarian): > 63.3 µM; TGI (HS 578T breast): 79.9 µM; TGI (LXFL 529 NSCLC): 48.6 µM; TGI (XF 498 CNS): 68.6 µM

Question: What does the source list for `CC[C@@]1(OC(=O)C(N)CCCCN)C(=O)OCc2c1cc1n(c2=O)Cc2cc3ccccc3nc2-1` (stereo not given in full)?
Answer: TGI (DMS 114 small cell lung): 0.263 µM; TGI (SNB-78 CNS): > 100 µM; TGI (KM20L2 colon): 12.5 µM; TGI (DU-145 prostate): 0.25 µM; TGI (DLD-1 colon): > 27.1 µM; TGI (DMS 273 small cell lung): 0.366 µM; TGI (HS 578T breast): > 100 µM; TGI (LXFL 529 NSCLC): 4.34 µM; TGI (XF 498 CNS): 1.78 µM

Question: `CN(C)CCC(/C=C/c1ccccc1)=N\Nc1ccc(Cl)c(Cl)c1` was tested. Which TGI (SNB-78 CNS) did it give?
Answer: Its TGI is 15.4 µM.

Question: What about the TGI (KM20L2 colon) of the same molecule?
Answer: The TGI was 4.54 µM.

Question: And the TGI (DLD-1 colon)?
Answer: Its TGI is 11 µM.

Question: And the TGI (DMS 273 small cell lung)?
Answer: Its TGI is 6.42 µM.

Question: And the TGI (LXFL 529 NSCLC)?
Answer: Its TGI is 4.13 µM.

Question: And the TGI (XF 498 CNS)?
Answer: Its TGI is 7.23 µM.

Question: What does the source list for `N#Cc1ccc(/C=C(/C(=O)c2ccccc2)c2ccccc2)cc1`?
Answer: TGI (DMS 114 small cell lung): 31.5 µM; TGI (SNB-78 CNS): 14.3 µM; TGI (KM20L2 colon): 31.2 µM; TGI (DLD-1 colon): 13 µM; TGI (DMS 273 small cell lung): 26.2 µM; TGI (LXFL 529 NSCLC): 20.4 µM; TGI (XF 498 CNS): 16.4 µM

Question: For `O=C1CC(c2c(-c3ccccc3)[nH]c3ccccc23)C(=O)N1c1ccccc1` (stereo not given), which TGI (DMS 114 small cell lung) is on record?
Answer: Its TGI is > 100 µM.

Question: What about the TGI (SNB-78 CNS) of the same molecule?
Answer: Its TGI is > 100 µM.

Question: What about the TGI (KM20L2 colon) of the same molecule?
Answer: Its TGI is > 100 µM.

Question: What about the TGI (DLD-1 colon) of the same molecule?
Answer: Its TGI is > 100 µM.

Question: And the TGI (DMS 273 small cell lung)?
Answer: The TGI was > 100 µM.

Question: And the TGI (LXFL 529 NSCLC)?
Answer: Its TGI is > 100 µM.

Question: What about the TGI (XF 498 CNS) of the same molecule?
Answer: The TGI was > 100 µM.

Question: `C/C(=N\NC(=O)C[N+](C)(C)C)c1sc(-c2cccnc2)nc1C` was tested. Which TGI (DMS 114 small cell lung) did it give?
Answer: The TGI was > 100 µM.

Question: What about the TGI (SNB-78 CNS) of the same molecule?
Answer: Its TGI is > 100 µM.

Question: What about the TGI (KM20L2 colon) of the same molecule?
Answer: Its TGI is > 100 µM.

Question: And the TGI (DLD-1 colon)?
Answer: The TGI was > 100 µM.

Question: And the TGI (DMS 273 small cell lung)?
Answer: The TGI was > 100 µM.

Question: What about the TGI (LXFL 529 NSCLC) of the same molecule?
Answer: Its TGI is > 100 µM.

Question: And the TGI (XF 498 CNS)?
Answer: The TGI was > 100 µM.

Question: What does the source list for `S=c1o[nH]c(-c2ccccc2)c1C=Nc1ccccc1`?
Answer: TGI (DMS 114 small cell lung): > 100 µM; TGI (SNB-78 CNS): > 100 µM; TGI (DLD-1 colon): > 100 µM; TGI (DMS 273 small cell lung): > 100 µM; TGI (LXFL 529 NSCLC): > 100 µM; TGI (XF 498 CNS): > 100 µM

Question: What does the source list for `CC1(C)CCCC2(C)C3C(O)CC2(C)C(O)C31` (stereo not given)?
Answer: TGI (DMS 114 small cell lung): > 100 µM; TGI (SNB-78 CNS): > 100 µM; TGI (KM20L2 colon): > 100 µM; TGI (DLD-1 colon): > 100 µM; TGI (LXFL 529 NSCLC): > 100 µM; TGI (XF 498 CNS): > 100 µM

Question: What does the source list for `O=c1[nH]c2cc([N+](=O)[O-])ccc2nc1/C(=N/Nc1ccccc1)C(O)c1ccco1` (stereo not given)?
Answer: TGI (DMS 114 small cell lung): > 100 µM; TGI (KM20L2 colon): > 100 µM; TGI (DLD-1 colon): > 100 µM; TGI (DMS 273 small cell lung): > 100 µM; TGI (LXFL 529 NSCLC): > 100 µM; TGI (XF 498 CNS): > 100 µM

Question: Which results are given for `Cc1ccc(S(=O)(=O)NC(=O)NCCc2ccccc2)cc1`?
Answer: TGI (DMS 114 small cell lung): > 100 µM; TGI (SNB-78 CNS): > 100 µM; TGI (KM20L2 colon): > 100 µM; TGI (DLD-1 colon): > 100 µM; TGI (LXFL 529 NSCLC): > 100 µM; TGI (XF 498 CNS): > 100 µM

From PubChem BioAssay (NCI)
